Experimental data: US20090162277A1, “Lysophospholipids Solubilized Single-Walled Carbon Nanotubes” (Clemson University, priority 2005, published 2009)
Like-named read-outs stand apart in the source and are kept apart here.

Experiments:
[1] = Solubility assay of SWNTs dispersed in PBS with phospholipids (optical density of supernatant); format: physicochemical
Description: Pristine SWNTs were synthesized using arc-deposition method. The average diameter of the SWNTs was approximately 1.4 nm measured by Raman spectroscopy and the average molecular weight of the SWNTs was 1×10^6 Dalton (Da) estimated from TEM. To measure the solubility provided by pure phospholipids, SWNTs were dispersed in phosphate buffered saline (PBS, pH=7.4) containing phospholipids of varying amounts. […] The weight ratio of solubilized SWNTs to LPC was approximately 1:10 corresponding to a molar ratio of 1:20,000 at saturation (FIG. 2b), indicating the high binding capacity of SWNTs.
Solubility Assays. Glycerol phospholipids and lysoglycerophopholipids were purchased from Avanti Polar Lipids, Inc, AL. Cell growth mediums NB and RPMI fortified with 10% FBS were obtained from Difco and Gibco (Invitrogen), respectively. SWNTs of 1 mg were placed in a series of eppendorf tubes containing lysophospholipids LPC 18:0, PC 24:0, PG 36:2, and PE 32:0 of 10, 40, 100, 400 μg and 1, 4, 10, 40 mg in 1 mL PBS solution. The eppendorf tubes were placed in a water bath and sonicated for 1 hr at room temperature. The solution was centrifuged for 3 min at 6,177 g. Approximately 0.3 mL of the supernatant was transferred into a glass cuvette and read for optical density against a blank at 360 nm. Size Exclusion Chromatography. Sepharose CL-4B beads (Sigma) having an exclusion limit molecular weight of 20×10^6 Da were used for gel filtration chromatography in a 10 mm (diameter)×150 mm (length) open column. The flow rate was produced by gravity at approximately 0.5 mL/min. Samples in 1×PBS of 40 μL were loaded onto the column with 1 M acetic acid as the mobile phase. Molecular weight markers with visible colours were used for calibration. The dark colour of the lysophospholipid dispersed SWNTs was monitored visually by comparing the elution volume with those of standard compounds. SWNT-LPC complexes were centrifuged at 16,060 g and SWNT-LPA complexes centrifuged at 6,177 g for 3 min. Their supernatants were used for size exclusion chromatography. TEM Experiment. Buffered solutions of SWNT-LPC and SWNT-LPG were sonicated for 1 min. The solutions were placed on holey carbon grids for 1 min and the excess drawn off with filter paper. The grid was negatively stained with a 2% uranyl acetate solution for 1 min. The images were recorded at magnification ranges from 400,000 to 600,000 times with the Hitach 7600 transmission electron microscope at 100 and 120 kV. Bioassay. Free lysophospholipids and micelles in SWNT-lysophospholipid solution were removed by filtration through 100 kDa Microcon (Amicon, Inc) centrifugation tubes and washed 4 times. The resulting lysophospholipid-free and micelle-free SWNT-LPC complexes were tested by […] bioassay using colon cancer (CACO-2) and macrophage (THP-1) cell lines. Each cell line was incubated in its own 8-well chamber slide (LabTek) for 48 hr at 37° C. in a CO2 incubator. Prior to treatment, cell adhesion was checked by differential interference contrast (DIC) microscopy using a Zeiss 135 Axiovert inverted microscope. Treatments ranging from 5 to 40 ppm of lysophospholipid-free and micelle-free SWNT-LPC complexes were added to each adherent cell line and incubated for 3 hr at 37° C. in a CO2 incubator. After incubation, control and treated cells were fixed with 4% paraformaldehyde for 30 min, washed in PBS and subjected to an APO-BrdU TUNEL assay (Invitrogen). This assay detects the onset of apoptosis by fluorescent detection of nuclear DNA fragments or DNA breaks. Cells were labeled with deoxythymidine analog 5-bromo-2′-deoxyuridine 5′ triphosphate (BrdUTP) followed by the addition of Alexa-Fluor 488 labeled anti-BrdU antibody. Propidium iodide was used to image the total DNA content of cells. The prepared cells were imaged using a Zeiss 510 LSM confocal fluorescence microscope.

MCF7 cells = assay: Rd-LPE translocation across cell membranes (rhodamine fluorescence imaging); format: cell-based; details: incubation 0.5 to 3.0 hours
Description: The SWNT lipid assemblies described above may be used to form an “optical switch” using rhodamine-lysophosphoethanolamine (Rd-LPE) and SWNTs. […] The construct of a Rd-LPE molecule and a coupled SWNT functions as a fluorescence resonance energy transfer (FRET) pair. […] FIG. 7A sets forth a control image without SWNTs. Rd-LPE was incubated with MCF7 cells for three hours. […] Images 7C through 7F show increased translocation of Rd-LPE across the MCF7 cells with respective incubation times of 0.5, 1.0, 2.0, and 3.0 hours. […] Further, the fluorescence is indicative that a physical separation between the SWNT and the Rd-LPE has occurred since the quenching effect was not observed.

| Compound | solubility of SWNTs provided by the phospholipid [1] | other results |
| --- | --- | --- |
| CCCCCCCCCCCCCCCC(=O)OCC(COP(=O)(O)OCCN)OC(=O)CCCCCCCCCCCCCCC (stereo not shown) [PE 32:0, 1,2-dipalmityolphosphatidylethanolamine, reference compound] | None of the above phospholipids provided good solubility |  |
| lysophosphatidic acid [LPA 16:0] | Comparable solubility |  |
| CCCCCCCCCCCCCC(=O)OC[C@H](COP(=O)([O-])OCC[N+](C)(C)C)OC(=O)CCCCCCCCCCCCC [PC 24:0, dimyristoyl phosphatidyl choline, reference compound] | None of the above phospholipids provided good solubility |  |
| lysophosphatidylcholine [LPC 18:0] |  | effectiveness in dispersing SWNTs in PBS relative to SDS, on per molecule basis ([1]; 6,177 g RCF at tip): approximately 2.5 times; effectiveness in dispersing SWNTs relative to SDS ([1]; 16,060 g RCF at tip): one order of magnitude more effective than SDS; solubility of SWNTs provided by the phospholipid ([1]; SWNTs in PBS pH=7.4, sonication 1 hr at room temperature): completely solubilized |
| CCCCCCCC/C=C\CCCCCCCC(=O)OCC(COP(=O)(O)OCC(O)CO)OC(=O)CCCCCCC/C=C\CCCCCCCC (stereo not shown) [PG 36:2, 1,2-dioleoylphosphatidylglycerol, reference compound] | None of the above phospholipids provided good solubility |  |
| lysophosphatidylglycerol [LPG 18:0] | Comparable solubility | solubility of SWNTs compared with SDS [1]: slightly better than SDS |
| rhodamine-lysophosphoethanolamine [Rd-LPE] |  | translocation across the cell membrane (intracellular rhodamine fluorescence) (MCF7 cells): minimal Rd-LPE translocation |
